Target: T1, ArrMab (Mycobacteroides abscessus, UniProt B1MH05)
T1 construct: gene MAB_0591; N-terminal 6xHis tag (pET28), expressed in E. coli T7 Express; RED-NHS amine-labelled for MST
Assay: microscale thermophoresis
Type: binding
From the text: microscale thermophoresis on ArrMab | ArrMab bound both antibiotics with the same Kd

T1 sequence (B1MH05 entry or part of it): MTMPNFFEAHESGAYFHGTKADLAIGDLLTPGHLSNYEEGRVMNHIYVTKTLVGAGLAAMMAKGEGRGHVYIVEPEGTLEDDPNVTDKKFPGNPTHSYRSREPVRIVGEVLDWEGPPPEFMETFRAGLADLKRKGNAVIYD

## CO[C@H]1/C=C/O[C@@]2(C)Oc3c(C)c(O)c4c(O)c(c(/C=N/N5CCN(C)CC5)c(O)c4c3C2=O)NC(=O)/C(C)=C\C=C\[C@H](C)[C@H](O)[C@@H](C)[C@@H](O)[C@@H](C)[C@H](OC(C)=O)[C@@H]1C [rifampicin]
  Kd: 27.9 µM

Reference: paper PMC8597724, “Kanglemycin A Can Overcome Rifamycin Resistance Caused by ADP-Ribosylation by Arr Protein” (Antimicrobial Agents and Chemotherapy, 2021)
